Reference: US20250352555A1, “METHOD OF INCREASING IMMUNE CELL ACTIVATION AND/OR TREATING CANCER USING DIBENZOXAZEPINONES” (VASCULAR THERAPEUTICS PTY LTD, priority 2022, published 2025)
Like-named read-outs stand apart in the source and are kept apart here.

How the values were obtained:
resistant melanoma PDX = resistant melanoma PDX model; cited from earlier work
PD-1 [1] = test: Flow cytometry with anti-PD-1 antibodies, Jurkat T cells; assay type: cell-based, human; conditions: same concentration range as BT2, 48 h (FIG. 17B)
Description: Flow cytometry with anti-PD-1 antibodies. Jurkat T cells were grown in 6 well plates containing RPMI 1640 and 10% FBS. After 24 h, the cells were treated with various concentrations of BT2 or BT3 for 48 h. Alternatively, the cells were incubated with 3 μM BT2 for various times. After treatment, the cells were washed with PBS, and centrifuged at 300×g for 5 min, and resuspended at 5×10^6 cells/ml. The cells were then incubated with BV421 conjugated mouse anti-human CD279 (PD-1) (BD, cat. no. 562516) or BV421 conjugated mouse IgG1 (BD, cat. no. 562438) for 45 min at 22° C. Cells were then washed twice with 1 ml of Stain Buffer, centrifuged and pellets were resuspended in 0.5 ml Stain Buffer. Stained cell suspensions were analyzed by flow cytometry using a BD FACSCanto (II).
Jurkat T cells express PD-1 (Yi et al., 2023) and are widely used as model human T cells (e.g., Repas et al., 2022). […] BT2's effects were not only dose-dependent but time-dependent. BT2 (3 μM) inhibited PD-1 levels by 50% after 24 h and by 80% after 48 h (FIG. 17C).

PD-1 [2] = test: Western blotting for PD-1, Jurkat T cells; assay type: cell-based, human; conditions: 24 h; for PD-1 expression (Western blot): various concentrations
Description: (§1) Western blotting. Cells were treated with compounds and times indicated and total cell lysates were prepared in RIPA buffer. Lysates (10 μg) were resolved by SDS-PAGE and transferred to Immobilon-P polyvinylidene difluoride (PVDF) membranes (Millipore, USA).
(§2) Membranes were blocked with 5% skim milk and incubated with rabbit monoclonal anti-c-Jun (Abcam, cat. no. ab32137; mouse, rat and human reactive) antibody, rabbit monoclonal anti-PD-1 (Abcam, cat. no. ab214421) antibody, mouse monoclonal β-actin antibody (Sigma-Aldrich, cat. no. A5316), anti-phospho-SAPK/JNK (Thr^183/Tyr^185) (98F2) (CST, cat. no. 4671) antibody, anti-phospho-p44/42 MAPK (ERK1/2) (Thr^202/Tyr^204) (D13.14.4E) (CST, cat. no. 4370) antibody, anti-phospho-p38 MAPK (Thr^180/Tyr^182) (D3F9) (CST, cat. no. 4511) antibody, anti-SAPK/JNK antibody (CST, cat. no. 9252), anti-p44/42 MAPK (ERK1/2) (137F5) antibody (CST, cat. no. 4695), anti-p38 MAPK antibody (CST, cat. no. 9212), anti-DUSP8 antibody (Abcam, cat. no. ab198175) or anti-c-MAF (BLR045F) antibody (Abcam, cat. no. ab243901). This was followed by incubation with horseradish peroxidase-conjugated secondary goat anti-rabbit (DAKO, cat. no. P0448) or goat anti-mouse (DAKO, cat. no. P0447) antibody. Chemiluminescence was detected using the Western Lightning Chemiluminescence system (Thermo Scientific, USA) and ImageQuant™ LAS 4000 biomolecular imager (GE Healthcare Life Sciences, USA). Band intensity in images generated with the LAS 4000 was quantified using NIH Image J.

[3] = test system: non-small cell lung carcinoma; conditions: non-small cell lung carcinoma-bearing mice; cited from earlier work
p-ERK (Thr^202/Tyr^204) [4] = test: Western blotting for p-ERK, A375 melanoma cells; assay type: cell-based, human; conditions: 10 or 100 nM, 24 h
Description: as §1
as §2, with “4695), anti-p38 MAPK antibody (CST, cat. no. 9212), anti-DUSP8 antibody (Abcam, cat. no. ab198175) or anti-c-MAF (BLR045F) antibody (Abcam, cat. no. ab243901). This was followed by incubation with horseradish peroxidase-conjugated secondary goat anti-rabbit (DAKO, cat. no. P0448) or goat anti-mouse (DAKO, cat. no. P0447) antibody.” left out
(§3) The effect of BT2 on ERK phosphorylation (p-ERK) was evaluated in human melanoma cells given that MAP kinase activation is key to melanoma progression and the paucity of clinically approved ERK inhibitors. […]

p-ERK (Thr^202/Tyr^204) [5] = test: Western blotting for p-ERK, MeWo melanoma cells; assay type: cell-based, human; conditions: 10 or 100 nM, 24 h
Description: as §1
as §2, with “4695), anti-p38 MAPK antibody (CST, cat. no. 9212), anti-DUSP8 antibody (Abcam, cat. no. ab198175) or anti-c-MAF (BLR045F) antibody (Abcam, cat. no. ab243901). This was followed by incubation with horseradish peroxidase-conjugated secondary goat anti-rabbit (DAKO, cat. no. P0448) or goat anti-mouse (DAKO, cat. no. P0447) antibody.” left out
as §3

A375 cells = test: Apoptosis, flow cytometry with Annexin V-FITC, A375; assay type: cell-based, human; conditions: 1 μM, 24 h
Description: (§4) Flow cytometry with Annexin V-FITC. Cells were seeded into 6 well plates in normal culture medium containing 10% FBS. After culturing overnight, the cells were incubated in complete medium containing vehicle, BT2 or SCH772984 at 1 μM and left for 24 h. The culture medium was removed and the cells were washed with PBS. Accutase (Stem Cell Technologies, cat. no. 07920) was used to detach the cells. The cells were then washed and centrifuged at 300 g for 5 min and resuspended at 1×10^6 cells/ml in 500 μl of 1× binding buffer (Annexin V-FITC Apoptosis Staining/Detection Kit, Abcam, cat. no. ab14085). The cells were transferred to 12×75 mm tubes and annexin V-FITC/propidium iodide (PI) was added and incubated for 5 min at 22° C. protected from light. Stained cell suspensions were analyzed by flow cytometry using a BD LSRFortessa X20.
(§5) The morphology of A375 and MeWo cells exposed to 1 μM of BT2 or SCH772984 for 24 h was also assessed.

MeWo cells = test: Apoptosis, flow cytometry with Annexin V-FITC, MeWo; assay type: cell-based, human; conditions: 1 μM, 24 h
Description: as §4, §5

advanced melanoma = conditions: cited from earlier work; for 5 year overall survival: advanced melanoma

Compound: Cc1cnc(NC2CCOCC2)nc1-n1cnc(C(=O)N[C@H](CN)c2cc(F)cc(Cl)c2)c1 [ASN007]
- efficacy (resistant melanoma PDX): demonstrates efficacy

Compound: CCN1C(=O)c2cc(N)ccc2Oc2ccccc21 [BT3, 2-amino-10-ethyldibenzo[b,f][1,4]oxazepin-11(10H)-one]
- effect on PD-1 expression (PD-1 [1]): no inhibitory effect

Compound: COc1cccc(-c2cc(=O)c3ccccc3o2)c1N [PD98059]
- PD-1 expression (Western blot) (PD-1 [2]): no effect on PD-1 expression

Compound: O=C(NOC[C@H](O)CO)c1ccc(F)c(F)c1Nc1ccc(I)cc1F [PD0325901]
- effect on efficacy of anti-PD-1 antibodies [3]: can enhance the efficacy of anti-PD-1 antibodies

Compound: O=C(Nc1ccc2[nH]nc(-c3ccncc3)c2c1)[C@@H]1CCN(CC(=O)N2CCN(c3ccc(-c4ncccn4)cc3)CC2)C1 [SCH772984, reference compound]
- ERK phosphorylation (p-ERK, Western blot) (p-ERK (Thr^202/Tyr^204) [4]): suppressed ERK phosphorylation
- ERK phosphorylation (p-ERK, Western blot) (p-ERK (Thr^202/Tyr^204) [5]): suppressed ERK phosphorylation
- apoptosis (Annexin V-FITC+ PI−) (A375 cells): no or less potent pro-apoptotic effects
- apoptosis (Annexin V-FITC+ PI−) (MeWo cells): no or less potent pro-apoptotic effects
- potency in suppressing PD-1 expression, fold less potent than BT2 (PD-1 [2]; Western blot): > 10 fold
- PD-1 expression (Western blot) (PD-1 [2]): suppressed PD-1 expression

Compound: pembrolizumab: anti-PD-1 antibody
- patients with treatment-related adverse events (advanced melanoma; advanced melanoma patients): 86%
- 5 year overall survival (advanced melanoma; all patients): 34%
- 5 year overall survival (advanced melanoma; treatment-naive patients): 41%
